Read-outs that look alike come from different tables or passages of the source.
Columns and labels:
off-target kinases [1] = target: T1, off-target kinases (Homo sapiens, UniProt P53778); experiment: SelectScreen Kinase Profiling, single point inhibition and IC50 for off-target kinases; assay type: biochemical; conditions: MAPK12 (p38 gamma), ZLYTE, ATP Km app
T1 sequence (P53778 1-367): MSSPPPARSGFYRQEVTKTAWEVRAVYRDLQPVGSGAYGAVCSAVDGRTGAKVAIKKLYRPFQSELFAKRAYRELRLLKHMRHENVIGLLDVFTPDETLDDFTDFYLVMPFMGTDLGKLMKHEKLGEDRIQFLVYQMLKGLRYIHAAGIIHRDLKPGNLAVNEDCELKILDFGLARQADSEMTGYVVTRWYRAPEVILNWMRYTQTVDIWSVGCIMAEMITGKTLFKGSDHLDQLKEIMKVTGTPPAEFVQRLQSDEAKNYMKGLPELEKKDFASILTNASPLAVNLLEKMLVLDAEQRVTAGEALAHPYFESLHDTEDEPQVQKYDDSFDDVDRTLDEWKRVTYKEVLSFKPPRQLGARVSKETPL

off-target kinases [2] = target: T2, off-target kinases (Homo sapiens, UniProt Q96PY6); experiment: as above; assay type: biochemical; conditions: NEK1, ATP Km app, ZLYTE
T2 sequence (Q96PY6 1-1258): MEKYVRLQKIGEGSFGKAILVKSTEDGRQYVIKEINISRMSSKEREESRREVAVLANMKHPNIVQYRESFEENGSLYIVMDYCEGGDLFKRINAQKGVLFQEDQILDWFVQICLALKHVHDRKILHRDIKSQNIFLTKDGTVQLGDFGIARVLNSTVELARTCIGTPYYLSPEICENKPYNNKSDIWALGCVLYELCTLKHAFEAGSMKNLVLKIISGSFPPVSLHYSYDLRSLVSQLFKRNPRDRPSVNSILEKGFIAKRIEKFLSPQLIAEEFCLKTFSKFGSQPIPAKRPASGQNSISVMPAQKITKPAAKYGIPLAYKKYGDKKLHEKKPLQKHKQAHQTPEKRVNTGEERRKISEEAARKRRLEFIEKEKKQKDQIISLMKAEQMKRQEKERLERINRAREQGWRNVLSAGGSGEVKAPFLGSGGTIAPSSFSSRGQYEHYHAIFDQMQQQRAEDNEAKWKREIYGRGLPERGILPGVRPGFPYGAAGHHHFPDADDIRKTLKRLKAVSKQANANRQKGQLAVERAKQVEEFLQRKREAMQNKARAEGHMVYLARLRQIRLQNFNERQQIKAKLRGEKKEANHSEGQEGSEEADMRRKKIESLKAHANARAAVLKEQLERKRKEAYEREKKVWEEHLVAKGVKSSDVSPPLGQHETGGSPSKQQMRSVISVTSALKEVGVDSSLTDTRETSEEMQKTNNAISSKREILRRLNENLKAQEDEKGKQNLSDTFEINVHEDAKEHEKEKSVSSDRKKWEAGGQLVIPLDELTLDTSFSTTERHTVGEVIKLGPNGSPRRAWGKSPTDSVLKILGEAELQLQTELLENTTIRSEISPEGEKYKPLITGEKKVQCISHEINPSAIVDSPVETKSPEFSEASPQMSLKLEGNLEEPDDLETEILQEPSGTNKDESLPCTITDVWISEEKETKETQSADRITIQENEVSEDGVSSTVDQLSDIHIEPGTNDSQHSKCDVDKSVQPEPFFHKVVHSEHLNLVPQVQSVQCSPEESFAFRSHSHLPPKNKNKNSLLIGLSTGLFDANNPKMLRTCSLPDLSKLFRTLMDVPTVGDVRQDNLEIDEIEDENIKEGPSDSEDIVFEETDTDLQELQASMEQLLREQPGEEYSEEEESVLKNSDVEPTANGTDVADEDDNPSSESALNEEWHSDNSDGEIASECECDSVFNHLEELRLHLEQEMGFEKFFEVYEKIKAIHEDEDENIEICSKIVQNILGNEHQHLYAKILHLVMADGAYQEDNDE

SMILES: N#Cc1cc(-c2ncnc(Nc3ccc(N4CCN(C5COC5)CC4)cc3)n2)ccc1OC1CCOCC1 [Compound 1, 5-(4-((4-(4-(oxetan-3-yl)piperazin-1-yl)phenyl)amino)-1,3,5-triazin-2-yl)-2-((tetrahydro-2H-pyran-4-yl)oxy)benzonitrile]
- inhibition (off-target kinases [1]; read-out: % Inhibition 1): 4%
- inhibition (off-target kinases [1]; read-out: % Inhibition 2): 3%
- inhibition (off-target kinases [1]; read-out: % Inhibition Avg): 3%
- inhibition (off-target kinases [2]; read-out: % Inhibition 1): 68%
- inhibition (off-target kinases [2]; read-out: % Inhibition 2): 70%
- inhibition (off-target kinases [2]; read-out: % Inhibition Avg): 69%

From patent publication US11572590B2, “Methods for evaluating tumor cell spheroids using 3D microfluidic cell culture device” (Dana-Farber Cancer Institute, Inc., priority 2017, dated 2023)
